Columns and labels:
[1] = test system: 5 HT2 A receptor cell lines; experiment: FACS sorting of responding cells from a mixture of three color-coded 5 HT2 A receptor cell lines (WT, S3.36 A, S5.46 A); type: cell-based, human
Description: FIG. 18 illustrates the results obtained during steps of GOF sorting of variant Human Serotonin Receptor Type 2A populations. Three populations of cells containing one of three versions of the human serotonin receptor type 2A were stained three distinct “colors” recognizable by the FACS. The populations were combined in equal proportions into one population. One mutant is the S3.36 A, the other mutant is the S5.46 A mutant and the third group is the wild type receptor (WT). The cells were also loaded with the Ca^2+i indicator dye, indol, so that receptor-mediated signaling events could be monitored through the Ca^2+i mobilization response. The combined population was stimulated with increasing concentrations of the test compound, naphthyl piperazine, and the percentage of cells within each colored subpopulation showing a threshold Ca^2+i response was quantified. […] The sorted cells were then re-analyzed to evaluate the subpopulation from which they were derived, based on the distinct “color” used to stain each subpopulation. The identity of the sorted populations that were taken from sorting at several different compound concentrations is shown in the bottom half of the figure. […] At the high and low ends of the concentration range there was no selective responsiveness by the S3.36 A variant cells, and the FACS selected each of the populations equally. […]

[2] = target: T1, S3.36 A variant of the 5HT2 A receptor (Homo sapiens, UniProt P28223, S159A); experiment: Ca2+i mobilization response (Indo-1, flow cytometry) of cells expressing variant serotonin receptor; type: cell-based
T1 construct: expressed in transfected cells
T1 sequence (P28223 whole entry S159A): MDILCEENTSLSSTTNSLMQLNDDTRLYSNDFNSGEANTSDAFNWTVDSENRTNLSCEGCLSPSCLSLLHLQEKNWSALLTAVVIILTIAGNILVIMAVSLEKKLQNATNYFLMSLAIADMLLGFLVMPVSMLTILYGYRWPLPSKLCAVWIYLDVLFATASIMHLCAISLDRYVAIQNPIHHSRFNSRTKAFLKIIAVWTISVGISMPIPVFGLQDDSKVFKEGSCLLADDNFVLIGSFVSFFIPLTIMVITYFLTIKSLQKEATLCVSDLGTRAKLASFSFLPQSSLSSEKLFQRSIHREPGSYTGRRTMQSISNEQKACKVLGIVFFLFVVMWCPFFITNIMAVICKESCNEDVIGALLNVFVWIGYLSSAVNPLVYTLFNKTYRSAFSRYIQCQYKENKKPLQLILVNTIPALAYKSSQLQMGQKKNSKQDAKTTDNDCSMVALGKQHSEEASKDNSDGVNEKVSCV
Description: Step 1: To observe GOF behavior it is necessary to understand the range of compound concentration that activates the wild type receptor (WT). GOF variants will respond to concentrations of the test compound at least 5 fold lower than the minimal concentration that activates the WT. An illustration is shown in FIG. 18 where a dose-response curve for one null function mutant receptor (NF), the serotonin 2 A receptor (5 HT2 A) mutant 5.46, and the WT are shown in the lower graph. The two curves are virtually identical. […] At very low concentrations, only the GOF 3.36 mutant bearing cells are isolated, and the WT and NF 5.46 mutant are only selected as the compound concentration is raised to relatively high concentrations. It will also be necessary to understand the time kinetics of the WT response so that an appropriate time window (TW) region of the response can be selected for the analysis and sort.
FIG. 18 illustrates the results obtained during steps of GOF sorting of variant Human Serotonin Receptor Type 2A populations. Three populations of cells containing one of three versions of the human serotonin receptor type 2A were stained three distinct “colors” recognizable by the FACS. The populations were combined in equal proportions into one population. One mutant is the S3.36 A, the other mutant is the S5.46 A mutant and the third group is the wild type receptor (WT). The cells were also loaded with the Ca^2+i indicator dye, indol, so that receptor-mediated signaling events could be monitored through the Ca^2+i mobilization response. The combined population was stimulated with increasing concentrations of the test compound, naphthyl piperazine, and the percentage of cells within each colored subpopulation showing a threshold Ca^2+i response was quantified. […] The sorted cells were then re-analyzed to evaluate the subpopulation from which they were derived, based on the distinct “color” used to stain each subpopulation. The identity of the sorted populations that were taken from sorting at several different compound concentrations is shown in the bottom half of the figure. […] At the high and low ends of the concentration range there was no selective responsiveness by the S3.36 A variant cells, and the FACS selected each of the populations equally.
GOF sorting enhances drug discovery by providing the ability to identify in a few months the Gain of Function (GOF) receptor variants that normally took years to identify. It was hypothesized that GOF variants could be isolated efficiently from a pool of cells, each expressing a single variant, by sorting responding cells at low concentrations of agonist, using Fluorescence Activated Cell Sorting (FACS). […]

**Q.** For `c1ccc2c(N3CCNCC3)cccc2c1` [Naphthyl Piperazine], which “share of GOF S3.36 A variant in the sorted population” value ([1]; 50-100 nM agonist concentration range) is on record?
**A.** 90%

**Q.** And the “agonist concentration range of selective sorting of GOF variant S3.36 A from wild type and S5.46 A” value ([1]; FACS sort of responding cells, mixed pool of 3 cell lines)?
**A.** 10 to 300 nM

**Q.** What about the “agonist concentration at which cells expressing the S3.36 A variant were becoming activated” value ([2]; WT and S5.46 A variant not activated at this concentration) of the same compound?
**A.** 3 nM

**Q.** What about the “fold lower EC50 of S3.36 A variant than the wild type or the S5.46 A variant” value ([2]; agonist dose-response, S3.36 A vs wild type or S5.46 A 5HT2 A receptor) of the same compound?
**A.** 1,000 fold

**Q.** What about the “minimum concentration that activates the 3.36 mutant cells, fold lower than that required to activate the WT” value ([2]; mutant 3.36 vs WT, dose-response curve FIG. 18) of the same compound?
**A.** more than 100 fold

**Q.** And the “affinity of S3.36 A variant for the compound compared with S5.46 A and WT” value ([2]; percentage of cells showing a threshold Ca2+i response, increasing concentrations)?
**A.** greater affinity

Reference: patent US20050021241A1, “Gain of function sorting for drug discovery and development” (priority 2003, published 2005)
